Earlier results in publication PMC5117885 (Drug Design, Development and Therapy, 2016).

How the values were obtained:
[1] = phase 3 ACCELERATE trial
[2] = not given; remark: listed apart in the source

## CCC(CC)CC1(C(=O)Nc2ccccc2SC(=O)C(C)C)CCCCC1 [Dalcetrapib]
other
  Effect on HDL-C levels: increased HDL-C levels
  Reduction of cardiovascular events compared to placebo group: did not demonstrate a significant reduction of cardiovascular events

## Cc1cc(C)c2c(c1)[C@@H](N(Cc1cc(C(F)(F)F)cc(C(F)(F)F)c1)c1nnn(C)n1)CCCN2C[C@H]1CC[C@H](C(=O)O)CC1 [Evacetrapib]
[1]
  Efficacy: did not improve the efficacy

## CCOC(=O)N1c2ccc(C(F)(F)F)cc2[C@@H](N(Cc2cc(C(F)(F)F)cc(C(F)(F)F)c2)C(=O)OC)C[C@H]1CC [Torcetrapib]
[2]
  Effect on blood pressure and aldosterone: Elevation of BP caused by torcetrapib was associated with a substantial increase of aldosterone
[2]; ILLUMINATE trial
  Effect on HDL-C and LDL-C: HDL-C increase and LDL-C decrease
[2]; ILLUMINATE trial, patients receiving torcetrapib
  Risk of death and cardiac events: significantly increased risk of death and cardiac events
